According to PubChem BioAssay AID248 (DTP/NCI, 2004):
Values joined by “and” are separate entries in the source; they are usually repeats but may differ in a detail not shown here. Identical values can stand only once. Inconclusive results and toxic doses are left out. Rule as the data show it: active = T/C of 150% or more; inactive = T/C below 125%.

Tested on: L1210 leukemia ip in BDF1 mice, survival T/C
Assay: NCI In Vivo Anticancer Drug Screen. Data for tumor model L1210 Leukemia (intraperitoneal) in B6D2F1 (BDF1) mice
Conditions: endpoint: mean survival time, higher = longer survival
Method in brief: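 Tumor cells were implanted, animals were treated, and survival was followed. The result divides the treated measurement by the vehicle-control measurement.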

[1] = dose: 50.0 mg/kg/injection, schedule: Q01DX009 (ip), vehicle: saline with Tween-80
[2] = dose: 100.0 mg/kg/injection, schedule: Q01DX009 (ip), vehicle: saline with Tween-80
[3] = dose: 100.0 mg/kg/injection, schedule: Q04DX003 (ip), vehicle: saline with Tween-80
[4] = dose: 200.0 mg/kg/injection, schedule: Q04DX003 (ip), vehicle: saline with Tween-80
[5] = dose: 200.0 mg/kg/injection, schedule: Q01DX009 (ip), vehicle: saline with Tween-80
[6] = dose: 100.0 mg/kg/injection, schedule: Q01DX001 (ip), vehicle: saline
[7] = dose: 200.0 mg/kg/injection, schedule: Q01DX001 (ip), vehicle: saline
[8] = dose: 400.0 mg/kg/injection, schedule: Q01DX001 (ip), vehicle: saline
[9] = dose: 75.0 mg/kg/injection, schedule: Q01DX001 (ip), vehicle: saline
[10] = dose: 150.0 mg/kg/injection, schedule: Q01DX001 (ip), vehicle: saline
[11] = dose: 100.0 mg/kg/injection, schedule: Q01DX009 (ip), vehicle: Klucel (hydroxypropylcellulose) (HPC)
[12] = dose: 100.0 mg/kg/injection, schedule: Q04DX003 (ip), vehicle: Klucel (hydroxypropylcellulose) (HPC)
[13] = dose: 200.0 mg/kg/injection, schedule: Q04DX003 (ip), vehicle: Klucel (hydroxypropylcellulose) (HPC)

Measured: T/C

CC(C)N(C(=S)[S-])C(C)C.CC(C)N(C(=S)[S-])C(C)C.[Zn]
inactive: dose: 37.5 mg/kg/injection, schedule: Q01DX009 (ip), vehicle: saline 89 % of control | dose: 75.0 mg/kg/injection, schedule: Q01DX001 (ip), vehicle: acetone 97 % of control | dose: 75.0 mg/kg/injection, schedule: Q01DX009 (ip), vehicle: saline 90 % of control | dose: 75.0 mg/kg/injection, schedule: Q04DX003 (ip), vehicle: saline 101 % of control | dose: 150.0 mg/kg/injection, schedule: Q01DX001 (ip), vehicle: acetone 92 % of control | dose: 150.0 mg/kg/injection, schedule: Q01DX009 (ip), vehicle: saline 86 % of control | dose: 150.0 mg/kg/injection, schedule: Q04DX003 (ip), vehicle: saline 90 % of control | dose: 300.0 mg/kg/injection, schedule: Q01DX001 (ip), vehicle: acetone 93 % of control | dose: 300.0 mg/kg/injection, schedule: Q04DX003 (ip), vehicle: saline 86 % of control

O=C(/C=C/c1ccccc1Cl)c1ccc(F)cc1
inactive: dose: 100.0 mg/kg/injection, schedule: Q04DX002 (ip), vehicle: saline with Tween-80 94 % of control | dose: 200.0 mg/kg/injection, schedule: Q04DX002 (ip), vehicle: saline with Tween-80 94 % of control | dose: 400.0 mg/kg/injection, schedule: Q04DX002 (ip), vehicle: saline with Tween-80 97 % of control

COc1ccc(CNCC(=O)OCc2ccccc2)cc1
inactive: [1] 91 % of control | [2] 100 % of control | [3] 102 % of control | [4] 101 % of control

Nc1ncnc2nc(-c3ccc(Cl)c(Cl)c3)[nH]c12
inactive: dose: 37.5 mg/kg/injection, schedule: Q01DX001 (ip), vehicle: saline with Tween-80 93 % of control | dose: 75.0 mg/kg/injection, schedule: Q01DX001 (ip), vehicle: saline with Tween-80 87 % of control | dose: 150.0 mg/kg/injection, schedule: Q01DX001 (ip), vehicle: saline with Tween-80 87 % of control

COc1cccc(/C=N\NC(=O)CNC(=O)Nc2ccc(Cl)c(Cl)c2)c1OC
inactive: [1] 93 % of control | [2] 93 % of control | [5] 86 % of control

CC(=O)OC1C(C)C2C=CC(=O)C2(C)CC2C1OC(=O)C2(O)CO (stereo not given)
inactive: dose: 25.0 mg/kg/injection, schedule: Q04DX002 (ip), vehicle: saline 116 % of control | dose: 50.0 mg/kg/injection, schedule: Q04DX002 (ip), vehicle: saline 113 % of control | dose: 100.0 mg/kg/injection, schedule: Q04DX002 (ip), vehicle: saline 95 % of control

CC1C(O)CC2CC1C2(C)C (stereo not given)
inactive: dose: 50.0 mg/kg/injection, schedule: Q01DX001 (ip), vehicle: saline with Tween-80 94 % of control | dose: 100.0 mg/kg/injection, schedule: Q01DX001 (ip), vehicle: saline with Tween-80 93 % of control | dose: 200.0 mg/kg/injection, schedule: Q01DX001 (ip), vehicle: saline with Tween-80 102 % of control

O=S(=O)(O)CCS
inactive: [6] 94 % of control | [7] 105 % of control | [8] 100 % of control

O=C(O)c1cc(O)c2c(c1)C(C1c3cc(C(=O)O)cc(O)c3C(=O)c3c(OC4OC(CO)C(O)C(O)C4O)cccc31)c1cccc(OC3OC(CO)C(O)C(O)C3O)c1C2=O (stereo not given)
inactive: [6] 98 % of control and 101 % of control | [7] 97 % of control | [8] 103 % of control and 106 % of control

CN1CCC2CCC(C1)N2C (stereo not given)
inactive: [9] 93 % of control | [10] 100 % of control

CCN(CC)C(C)CN1c2ccccc2Sc2ccccc21 (stereo not given)
inactive: dose: 25.0 mg/kg/injection, schedule: Q01DX009 (ip), vehicle: Klucel (hydroxypropylcellulose) (HPC) 97 % of control | dose: 25.0 mg/kg/injection, schedule: Q04DX003 (ip), vehicle: saline 88 % of control | dose: 50.0 mg/kg/injection, schedule: Q01DX009 (ip), vehicle: Klucel (hydroxypropylcellulose) (HPC) 94 % of control | [11] 103 % of control | dose: 100.0 mg/kg/injection, schedule: Q04DX003 (ip), vehicle: saline 96 % of control | dose: 200.0 mg/kg/injection, schedule: Q04DX003 (ip), vehicle: saline 93 % of control

CCCCCCCC/C=C/CCCCCCCCNC(=O)NCCCl
inactive: [2] 95 % of control | [3] 87 % of control | [5] 92 % of control | [4] 87 % of control | dose: 400.0 mg/kg/injection, schedule: Q04DX003 (ip), vehicle: saline with Tween-80 94 % of control

CC(C)(CO)C(O)C(=O)NN (stereo not given)
inactive: [6] 91 % of control | [7] 94 % of control

C[n+]1ccc(C(=O)c2ccccc2)cc1
inactive: [9] 94 % of control | [10] 101 % of control

C1=Nc2c(ncnc2SCc2ccccc2)NN1
inactive: dose: 5.0 mg/kg/injection, schedule: Q01DX001 (ip), vehicle: other 100 % of control | dose: 10.0 mg/kg/injection, schedule: Q01DX001 (ip), vehicle: other 106 % of control | dose: 20.0 mg/kg/injection, schedule: Q01DX001 (ip), vehicle: other 100 % of control | dose: 40.0 mg/kg/injection, schedule: Q01DX001 (ip), vehicle: other 100 % of control | dose: 50.0 mg/kg/injection, schedule: Q01DX001 (ip), vehicle: other 113 % of control | dose: 80.0 mg/kg/injection, schedule: Q01DX001 (ip), vehicle: other 93 % of control | dose: 100.0 mg/kg/injection, schedule: Q01DX001 (ip), vehicle: other 88 % of control

C1CCC2C(C1)CCC1CCCCC12 (stereo not given)
inactive: dose: 62.5 mg/kg/injection, schedule: Q01DX001 (ip), vehicle: carboxymethylcellulose (CMC) 100 % of control | dose: 125.0 mg/kg/injection, schedule: Q01DX001 (ip), vehicle: carboxymethylcellulose (CMC) 100 % of control | dose: 250.0 mg/kg/injection, schedule: Q01DX001 (ip), vehicle: carboxymethylcellulose (CMC) 96 % of control | dose: 500.0 mg/kg/injection, schedule: Q01DX001 (ip), vehicle: carboxymethylcellulose (CMC) 102 % of control

CCO/C=C1\SC(=S)N(c2ccc(OCC)cc2)C1=O
inactive: [11] 98 % of control | [12] 98 % of control | dose: 200.0 mg/kg/injection, schedule: Q01DX009 (ip), vehicle: Klucel (hydroxypropylcellulose) (HPC) 95 % of control | [13] 98 % of control | dose: 400.0 mg/kg/injection, schedule: Q01DX009 (ip), vehicle: Klucel (hydroxypropylcellulose) (HPC) 98 % of control | dose: 400.0 mg/kg/injection, schedule: Q04DX003 (ip), vehicle: Klucel (hydroxypropylcellulose) (HPC) 97 % of control

S=C(NCc1ccccc1)C(=S)NCc1ccccc1
inactive: [12] 105 % of control | [13] 98 % of control
